Test results from patent US20200129434A1, “LIPOSOME COMPOSITIONS AND USES THEREOF” (TECHNION RESEARCH & DEVELOPMENT FOUNDATION LIMITED, priority 2017, published 2020).

What was measured:
U87 glioblastoma cells [1] = assay: Tumor growth in the mouse model of glioblastoma, luciferase imaging with IVIS 200; assay type: in vivo, SCID immuno-deficient mice; details: 4 mg/kg daily intraperitoneally, FIG. 3A
Description: (§1) In order to assess the efficacy of the liposome composition in delivering a therapeutic agent to the brain, glioblastoma in a mouse model was employed. Curcumin was integrated into liposomes comprising cholesterol: phosphatidyl phosphoric acid: phosphatidyl choline in molar ratios of 35:7:58. The targeting peptide was present at 0.5% by molar ratio, mol % or weight %, and the curcumin was at a final concentration of 1% by molar ratio, mol % or weight %. The resulting liposomes where lyophilized, hydrated and downsized into a diameter of 0.1 μm±20%.
(§2) These liposomes comprised cholesterol: phosphatidyl phosphoric acid: phosphatidyl choline in molar ratios of 40:5:55. The molar concentration of the drug and targeting peptide were unchanged.
As a model of glioblastoma, SCID immuno-deficient mice were implanted with U87 glioblastoma cells. The U87 cells had previously been transfected with a luciferase gene, such that upon intraperitoneally injection of the mice with luciferin, the cells would fluoresce, allowing for accurate quantification and imaging of the tumor using the IVIS 200 imaging system. The degree of fluorescence measured was proportional to the number of cancer cells, and therefore indicated the cancer growth. […]
By using the luciferase imaging system, quantification of the relative tumor size was possible (FIG. 3). […]

U87 glioblastoma cells [2] = assay: Survival studies in U87 transferred mice; assay type: in vivo, SCID immuno-deficient mice
Description: as §1, §2
As a model of glioblastoma, SCID immuno-deficient mice were implanted with U87 glioblastoma cells. The U87 cells had previously been transfected with a luciferase gene, such that upon intraperitoneally injection of the mice with luciferin, the cells would fluoresce, allowing for accurate quantification and imaging of the tumor using the IVIS 200 imaging system. The degree of fluorescence measured was proportional to the number of cancer cells, and therefore indicated the cancer growth.
Curcumin and TMZ in targeted liposome carriers, were administered intraperitoneally to the mice 3 days after injection of the tumor cells and for at least 3 weeks. […]

[3] = Evaluation of liposome compositions for delivery of curcumin (solubility, drug stability, half-life); assay type: physicochemical; details: curcumin loaded in the cholesterol/PA/PC liposome formulation
Description: To test various liposome compositions, the water insoluble drug curcumin was employed as the therapeutic agent to be incorporated into the liposome. Curcumin, has been used for many clinical purposes, including as an antioxidant, antibacterial, anti-inflammatory agent, anti-neurodegenerative processes and anticancer agent. Curcumin however, is highly water-insoluble, has a very short biological half-life, and poor pharmacokinetics. Previous attempts at liposomes for the delivery of curcumin comprised cholesterol (Ch), 1,2-dioleyl-sn-glycero-3-phosphocholine (DOPC), 1,2-dioleyl-sn-glycero-3-phosphoethanolamine (DOPE), and 1,2-dioleoyl-sn-glycero-3-[phosphor-L-serine] (DOPS), usually in equimolar amounts.
Various compositions of liposomes for delivery of curcumin were tested and evaluated for drug loading, drug stability and half-life, and effective targeting in the body. […] The targeting peptide was dissolved in chloroform/methanol and added to the mixture at 0.1-2% by molar ratio, mol % or weight %.
Loading of the drug into the liposome was achieved by pre-dissolving the target drug during the preparation of the liposome, thereby enabling a desired and reproducible concentration of the drug in the most stabilized environment.

Structure (SMILES)	latency period before tumor growth (U87 glioblastoma cells [1])	survival time of all mice after tumor cell transfer (U87 glioblastoma cells [2]; daily dosing 4 mg/kg, FIG. 4)	degradation and biological half-life of the drug [3]	survival compared with control (in words) (U87 glioblastoma cells [2]; 4 mg drug/kg mouse daily)
Cn1nnc2c(C(N)=O)ncn2c1=O [free TMZ, Temozolomide]	2 weeks	≤ 30 days	–	–
COc1cc(/C=C/C(=O)CC(=O)/C=C/c2ccc(O)c(OC)c2)ccc1O [free curcumin, curcumin]	–	–	protect the drug from degradation and prolong its biological half-life	survival was not significantly extended
